Experiments:
[1] = Pharmacokinetics study in ICR mice; format: in vivo, mouse
Experimental: Pharmacokinetic properties were investigated using ICR mice weighing between 18 and 22 grams. Six mice were assigned into two groups, with three in each group. ISOGK was administered via intragastric and tail vein injections. For both the intravenous and intragastric administration groups, cheek blood samples of approximately 0.05 mL were collected at 5 min, 15 min, 30 min, 1 h, 2 h, 4 h, 6 h, 8 h, and 24 h post-administration. The plasma concentration of compound in the mice was measured using the LC-MS/MS technique. Pharmacokinetic parameters were then analyzed using WinNonlin software.

liver gene expression = experiment: RNA sequencing of Apoe-/- mouse liver; format: in vivo; conditions: heat map
Source text: Total RNA was extracted, and cDNA libraries were generated to investigate differences in gene expression. The Illumina sequencing platform was employed for single-end sequencing of the libraries. HISAT2 software (version 2.0.5) was utilized to align the reads to the mouse reference genome in Ensembl. StringTie (version 1.3.3b) was employed to compute raw counts of genes. DESeq2 (version 1.20.0) software was used to normalize the count matrix. Gene sets were established based on each KEGG pathway term and the associated genes, with GSEA conducted using the Java GSEA platform (version 3.0). This analysis utilized the 'Signal2Noise' metric for ranking and adopted a permutation type specific to 'gene sets'. Gene sets displaying FDR values below 0.25 were deemed to hold statistical significance. The expression patterns of pivotal genes within the pathways enriched by GSEA were visually represented through heatmaps, generated by employing the "pheatmap" package within the R programming environment. The relevant data can be accessed via the Gene Expression Omnibus database, using the following accession number: GSE261858.

Apoe-/- mice = experiment: High cholesterol diet-induced atherosclerosis in Apoe-/- mice; format: in vivo, mouse
Experimental: C57BL/6J (N000013, Gempharmatech, Nanjing, Jiangsu, China) and Apoe^-/- (T001458, Gempharmatech, Nanjing, Jiangsu, China) mice were employed. […] Alipoprotein E knockout (Apoe^-/-) mice were subjected to a 1.25% high cholesterol diet (#D12108C, RESEARCH DIETS, New Brunswick, NJ, USA). After 7 weeks of atherosclerosis induction, intraperitoneal injection of ISOGK (20 mg/kg/day) was initiated and continued for additional 8 weeks. Upon reaching the designated experimental endpoint, blood was collected retro-orbitally, and serum was isolated for subsequent biochemical parameter analysis. Subsequently, the aorta and heart tissues were processed. The aorta was subjected to Oil Red O staining (#G1260, SolarBio, Beijing, China) for en face examination, and cryosections of the aortic sinus were prepared for analysis as we previously described. The serum lipid profile was evaluated utilizing colorimetric kits from Leidu Biotech (Shenzhen, China). Liver samples were gathered, processed into a homogenate, and then centrifuged. The resulting transparent supernatant was utilized for assessing hepatic triglyceride (TG) and total cholesterol (TC) concentrations using kits obtained from commercial sources (290-63701 for TG, 294-65801 for TC; Wako, Tokyo, Japan and E-BC-K261-M for TG, E-BC-K109-M for TC; Elabscience, Wuhan, China). The levels of TG and TC were normalized against the weight of the liver tissue. Kits for antioxidant-related indicators, including GSH (S0059S, Beyotime, Shanghai, China), MDA (S0131S, Beyotime, Shanghai, China), SOD (S0101S, Beyotime, Shanghai, China), and ox-LDL (CSB-E07933m, CUSABIO, Beijing, China), were detected in mouse serum. Acly^flox/flox mice were sourced from the Shanghai Model Organisms Center (no. NM-CKO-200076). The Institutional Animal Care and Use Committee of the University of Science and Technology of China (USTC) approved all animal care procedures (approval number USTCACUC27120124102, USTCACUC212401038).
Plasma levels of TC, TG, LDL-C, and high-density lipoprotein cholesterol (HDL-C) were determined following the manufacturer's instructions. Liver tissues (30-40 mg) were homogenized in 0.5 mL of cold PBS for hepatic TG and cholesterol measurement. A 0.4 mL homogenate was combined with 1.4 mL of a CHCl3/CH3OH mixture (2:1, v/v) and shaken overnight at room temperature. Following centrifugation at 2,500 × g for a period of 10 min, the organic phase was meticulously transferred and permitted to air-dry. The residual organic material was then reconstituted in 800 μL of ethanol containing 1% Triton X-100, whereby the ethanol served to solubilize the material.
Fast protein liquid chromatography (FPLC) was employed to analyze plasma lipoproteins using 200 μL of pooled plasma samples. The samples were initially filtered through 0.22-µm filters and subsequently loaded onto Tricorn high-performance Superose S-6 10/300GL columns (Amersham Biosciences). Elution was conducted with PBS at a constant flow rate of 0.25 mL/min. The eluted fractions (500 μL each) were subjected to analysis for TG and TC concentrations using the aforementioned commercial assay kits.
Cytokines, including C-reactive protein (CRP) (RK04303, ABclonal, Guangzhou, China), interleukin-1 beta (IL-1 β) (RK00006, ABclonal, Guangzhou, China), and interleukin-6 (IL-6) (RK00008, ABclonal, Guangzhou, China), were extracted from mouse serum and analyzed using enzyme-linked immunosorbent assay (ELISA) kits. All procedures were conducted in accordance with the instructions provided by the manufacturers.
Tissue slides from the male Apoe^-/- mice aortic sinus was washed with PBS and then permeabilized in a solution of PBS with 0.3% BSA and 0.03% Triton X-100 for 1 h at room temperature. These sections were subsequently incubated overnight with primary antibodies at a 1:400 dilution, followed by a 1-h incubation with Alexa Fluor 488 or 546-conjugated sary antibodies at a 1:2000 dilution, also at room temperature. […]

[2] = 20 mg/kg/day i.p., 8 weeks, male or female Apoe-/- mice
[3] = female Apoe-/- mice, 20 mg/kg/day, 8 weeks
[4] = male Apoe-/- mice, 20 mg/kg/day, 8 weeks

**Q.** With COc1ccc(-c2cc(=O)c3c(O)cc(O)c(-c4cc(-c5cc(=O)c6c(O)cc(O)cc6o5)ccc4OC)c3o2)cc1 [ISOGK, Isoginkgetin] as the compound, how does the peak plasma concentration ([1]; intravenous 5 mg/kg) read?
**A.** 710 ng/mL

**Q.** And the Tmax ([1]; mouse, plasma, intravenous 5 mg/kg, read-out: time of peak plasma concentration (converted))?
**A.** 5 min

**Q.** What about the “plasma levels after oral administration” value ([1]; oral 20 mg/kg) of the same compound?
**A.** almost undetectable

**Q.** What about the oral bioavailability ([1]; oral 20 mg/kg vs intravenous 5 mg/kg) of the same compound?
**A.** low oral bioavailability

**Q.** What about the “expression of fatty acid and cholesterol biosynthesis genes Srebf1, Fasn, Acaca, Cyp51” value (liver gene expression) of the same compound?
**A.** significantly downregulated

**Q.** What about the “body weight vs vehicle” value (Apoe-/- mice; [2]) of the same compound?
**A.** No significant changes in body weight

**Q.** And the “serum ALT and AST” value (Apoe-/- mice; [2])?
**A.** no significant changes

**Q.** What about the “liver H&E and Sirius red staining” value (Apoe-/- mice; 20 mg/kg/day, 8 weeks, Apoe-/- mice) of the same compound?
**A.** no substantial pathological alterations

**Q.** And the “necrotic core area in aortic sinus (H&E)” value (Apoe-/- mice; Apoe-/- mice, 20 mg/kg/day, 8 weeks)?
**A.** notable reduction in the necrotic core area

**Q.** What about the “oxidative stress markers in serum (GSH, MDA, SOD, ox-LDL)” value (Apoe-/- mice; Apoe-/- mice, 8 weeks) of the same compound?
**A.** no significant alterations

**Q.** What about the “LDLR and ACLY protein expression in liver tissues” value (Apoe-/- mice; Apoe-/- mice, Western blot) of the same compound?
**A.** no significant change in either LDLR or ACLY protein expression

**Q.** And the “TG levels in serum and liver tissue” value (Apoe-/- mice; Apoe-/- mice, irrespective of gender)?
**A.** notable decline in TG levels

**Q.** And the “serum LDL-C and HDL-C” value (Apoe-/- mice; female Apoe-/- mice)?
**A.** remained unchanged

**Q.** What about the “decrease in aortic sinus lesion area (ORO) vs vehicle” value (Apoe-/- mice; [3]) of the same compound?
**A.** 45.74%

**Q.** What about the “decrease in liver tissue TC” value (Apoe-/- mice; [3]) of the same compound?
**A.** 32.34%

**Q.** And the “decrease in serum TC” value (Apoe-/- mice; [3])?
**A.** 24.24%

**Q.** And the “reduction of en face aortic lesion area (ORO) vs vehicle” value (Apoe-/- mice; [3])?
**A.** 3.88%

**Q.** And the “TG and cholesterol carried in VLDL particles (FPLC)” value (Apoe-/- mice; female Apoe-/- mice, pooled plasma)?
**A.** significant reduction

**Q.** What about the “serum LDL-C” value (Apoe-/- mice; male Apoe-/- mice) of the same compound?
**A.** decreased the serum levels of LDL-C

**Q.** What about the “content of macrophages in the aortic sinus (immunofluorescence)” value (Apoe-/- mice; [4]) of the same compound?
**A.** substantial decline

**Q.** What about the “content of smooth muscle cells and endothelial cells in the aortic sinus” value (Apoe-/- mice; [4]) of the same compound?
**A.** remained unaltered

**Q.** And the “decrease in aortic sinus lesion area (ORO) vs vehicle” value (Apoe-/- mice; [4])?
**A.** 46.35%

**Q.** What about the “decrease in liver tissue TC” value (Apoe-/- mice; [4]) of the same compound?
**A.** 29.98%

**Q.** What about the “decrease in serum TC” value (Apoe-/- mice; [4]) of the same compound?
**A.** 27.15%

**Q.** What about the “expression of cholesterol efflux genes in the liver” value (Apoe-/- mice; male Apoe-/- mice, qRT-PCR) of the same compound?
**A.** no significant differences

**Q.** What about the “serum CRP, IL-1β and IL-6 (ELISA)” value (Apoe-/- mice; male or female Apoe-/- mice, vehicle vs ISOGK) of the same compound?
**A.** no statistically significant differences

Source: article PMC11984407, “A natural small molecule isoginkgetin alleviates hypercholesterolemia and atherosclerosis by targeting ACLY” (Theranostics, 2025)
